Test results published in paper PMC5248581 (PeerJ, 2017).
Residues, ends and D or L forms follow the SMILES beside them.

Columns and labels:
[1] = target: T1, recombinant human myc-B2R (Homo sapiens, UniProt P30411); test: [3H]BK binding competition, human myc-B2R; conditions: for IC50: 3 nM [3H]BK, 0 °C, intact HEK 293a cells, peptidase inhibitors (captopril, PMSF), [95% C.L.]
T1 construct: expressed in transfected cells
T1 sequence (P30411 1-391): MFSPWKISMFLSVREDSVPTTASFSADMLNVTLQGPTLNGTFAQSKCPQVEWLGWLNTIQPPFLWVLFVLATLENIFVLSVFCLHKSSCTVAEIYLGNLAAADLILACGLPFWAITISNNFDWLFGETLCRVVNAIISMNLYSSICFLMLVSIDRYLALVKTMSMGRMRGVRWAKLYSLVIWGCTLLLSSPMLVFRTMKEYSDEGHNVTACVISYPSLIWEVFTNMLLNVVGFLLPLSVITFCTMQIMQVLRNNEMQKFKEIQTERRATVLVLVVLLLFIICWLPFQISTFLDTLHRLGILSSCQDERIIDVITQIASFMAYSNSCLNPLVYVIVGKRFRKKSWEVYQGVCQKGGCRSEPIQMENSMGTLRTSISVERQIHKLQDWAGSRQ
Description: (§1) The construction of myc-tagged B2R expression vectors containing the human and rat receptor sequence has been recently reported, as well as the derivation of HEK 293a cell lines that stably express each one of these constructions ([Charest-Morin et al., 2015]). The HEK 293a cell line was originally obtained from Sigma-Aldrich. Affinity of N-terminally extended kinins for the B2R was evaluated using a radioligand binding competition assay performed at 0 °C in the presence of peptidase inhibitors that included captopril and PMSF ([Houle et al., 2000]).
(§2) Results are presented as means ± s.e.m.

[2] = target: T2, human isolated umbilical vein (BK B2R; histamine H1R) (Homo sapiens, UniProt P30411); conditions: for EC50: read-out: Human umbilical vein EC50, contraction, cumulative, [95% C.L.]
T2 sequence (P30411 1-391): T1 sequence (P30411 1-391)
Excerpt: The institutional research ethics board (CHU de Québec) approved the anonymous use of human umbilical cord segments obtained after elective cesarean section deliveries (file number: 2012-323). Informed written consent was obtained from mothers.
Results are presented as means ± s.e.m. Radioligand binding data were fitted by nonlinear regression to a one-site competition equation using a least-square method (Prism 5.0; GraphPad Software Inc., San Diego, CA, USA) and IC50 values calculated from this procedure. The same computer program was used to draw concentration-effect curves (least square fitting of sigmoidal dose–response equation with variable slope) and to derive contractile EC50 values. Data describing baseline values of heart rate and mean arterial blood pressure and hypotensive responses to peptides in anesthetized rats were assessed by using one-way analysis of variance (ANOVA) followed by the Dunnett’s test (repeated comparison with a common control). The effects of drugs on the hypotensive responses to each dose of MK were assessed by using ANOVA followed by the Dunnett’s test.

human BK B1 receptor = conditions: ref Charest-Morin & Marceau, 2016; cited from earlier work
Excerpt: MRGPRX2 has been recently described as a promiscuous receptor for cationic polymers and drugs that produce direct mast cell degranulation ([McNeil et al., 2015]). […] The contractile effect of MK on the human umbilical vein and ...

[3] = target: T2, human isolated umbilical vein (BK B2R; histamine H1R); conditions: ref Gera et al., 2011; Charest-Morin et al., 2014; cited from earlier work
Excerpt: The isolated umbilical vein has a low intrinsic sensitivity to endothelium-dependent vasodilation owing to its >20 layers of B2R-expressing smooth muscle cells ([Koumbadinga et al., 2010]; [Jean et al., 2016b]).

rat recombinant myc-B2R = target: T3, rat recombinant myc-B2R (Rattus norvegicus, UniProt P25023); test: [3H]BK binding competition, rat myc-B2R; conditions: 3 nM [3H]BK, 0 °C, intact HEK 293a cells, peptidase inhibitors (captopril, PMSF); [95% C.L.]
T3 construct: expressed in transfected cells
T3 sequence (P25023 1-396): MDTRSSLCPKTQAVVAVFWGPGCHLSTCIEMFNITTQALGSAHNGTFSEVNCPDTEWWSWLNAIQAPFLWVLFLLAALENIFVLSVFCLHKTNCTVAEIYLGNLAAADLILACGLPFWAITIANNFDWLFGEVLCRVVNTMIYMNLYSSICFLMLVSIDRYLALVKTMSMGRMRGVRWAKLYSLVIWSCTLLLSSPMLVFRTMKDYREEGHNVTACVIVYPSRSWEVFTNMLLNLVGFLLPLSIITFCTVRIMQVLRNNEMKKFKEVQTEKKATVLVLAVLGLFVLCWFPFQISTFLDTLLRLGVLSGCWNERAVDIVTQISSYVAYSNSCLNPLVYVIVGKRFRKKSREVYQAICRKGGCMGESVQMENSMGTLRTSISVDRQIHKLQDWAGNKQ
Description: as §1, §2

[4] = LC-MS of MK incubated with human umbilical vein ring; format: in vitro ADME; conditions: MK (100 fmol analysed), 37 °C, 5 or 15 min
Description: Synthetic MK (1 µM) was submitted to digestion in 2 ml of sterile-filtered Krebs solution in the presence of a freshly prepared ring of human umbilical vein (wet weight 25–37 mg). The tubes containing these materials were incubated at 37 °C for 5 or 15 min; the tissues were then removed and five volumes of cold ethanol (10 ml) were added to each tube. The tubes were incubated for 1 h on ice, centrifuged at 10,000 g to remove precipitated proteins and the kinin-containing supernatants were collected (procedure previously validated, [Raymond et al., 1995]). The supernatants were then completely evaporated to dryness in a Speedvac system and reconstituted in a small volume of water. Peptides were desalted on stage tip (C18), vacuum dried and then resuspended into 0.1% formic acid. One hundred fmol of each sample (starting MK quantity) was analyzed by mass spectrometry.
Mass spectrometry: peptide samples were separated by online reversed-phase (RP) nanoscale capillary liquid chromatography (nanoLC) and analyzed by electrospray mass spectrometry (ES MS/MS). The experiments were performed with a Ekspert NanoLC425 (Eksigent) coupled to a 5600+ mass spectrometer (AB Sciex, Framingham, MA, USA) equipped with a nanoelectrospray ion source. Peptide separation took place on a picofrit column (Reprosil 3u, 120A C18, 15 cm × 0.075 mm internal diameter). Peptides were eluted with a linear gradient from 5–35% solvent B (acetonitrile, 0.1% formic acid) in 35 min, at 300 nL/min. Mass spectra were acquired using a data dependent acquisition mode using Analyst software version 1.7. […] Dynamic exclusion was set for a period of 3 s and a tolerance of 100 ppm
Database searching: MGF peak list files were created using Protein Pilot version 5.0 software (Sciex) utilizing the Paragon and Progroup algorithms. MGF sample files were then analyzed using Mascot (Matrix Science, London, UK; version 2.5.1).
Mascot was set up to search the MK sequence assuming that the digestion enzyme was non-specific. Mascot was searched with a fragment ion mass tolerance of 0.100 Da and a parent ion tolerance of 0.100 Da. Deamidation of asparagine and glutamine and oxidation of methionine were specified in Mascot as variable modifications. Scaffold (version Scaffold_4.7.1; Proteome Software Inc., Portland, OR, USA) was used to validate MS/MS based peptide and protein identifications.
Data processing: Peak View 1.2.0.1 (Sciex) was used to extract the specific precursor masses and calculate the area under the curve. Extracted ion chromatoram (XIC) were generated from the TOF MS using a peak width of 0.05.

[5] = Plasma level after injection; design: species or system rat; conditions: after injection at the highest tested dose in vivo
rat mast cells = conditions: read-out: histamine release EC50; ref Devillier et al., 1985; cited from earlier work
Excerpt: MK, encoded by two genes as five identical and cleavable amino acid sequences ([Chen et al., 2003]), is presumably a dissuasive toxin expressed in the skin of the toad Bombina maxima. Several such BK-related peptides of amphibian origin are believed to have co-evolved with the kinin receptors of the predatory species such as birds and snakes ([Xi et al., 2015]).

Q: Which IC50 [1] does the source give for `CC[C@H](C)[C@H](NC(=O)[C@H](CCCCN)NC(=O)[C@@H]1CCCN1C(=O)[C@H](CC(C)C)NC(=O)[C@@H](N)CC(=O)O)C(=O)N[C@@H](CC(N)=O)C(=O)N[C@@H](CCCNC(=N)N)C(=O)N[C@@H](CCCCN)C(=O)NCC(=O)N1CCC[C@H]1C(=O)N[C@@H](CCCNC(=N)N)C(=O)N1CCC[C@H]1C(=O)N1CCC[C@H]1C(=O)NCC(=O)N[C@@H](Cc1ccccc1)C(=O)N[C@@H](CO)C(=O)N1CCC[C@H]1C(=O)N[C@@H](Cc1ccccc1)C(=O)O` [MK-des-Arg] (H-DLPKINRKGPRPPGFSPF-OH; N-terminus and C-terminus assumed) here?
A: > 10 µM

Q: And the “displacement of [3H]BK binding / affinity” value ([1]; human myc-B2R)?
A: did not significantly displace [^3H]BK binding

Q: And the “contractile effect” value [2]?
A: negligible effects

Q: And the EC50 [2]?
A: > 10 µM

Q: And the “B1R affinity” value (human BK B1 receptor)?
A: very low affinity

Q: For “Met-Lys-BK-Ser-Ser [BK prodrug prolonged at the C-terminus]”, which “apparent potency in presence of specific peptidase inhibitors” value [3] is on record?
A: decreased apparent potency

Q: Which IC50 [1] does the source give for `CC[C@H](C)[C@H](NC(=O)[C@H](CCCCN)NC(=O)[C@@H]1CCCN1C(=O)[C@H](CC(C)C)NC(=O)[C@@H](N)CC(=O)O)C(=O)N[C@@H](CC(N)=O)C(=O)N[C@@H](CCCNC(=N)N)C(=O)N[C@@H](CCCCN)C(=O)NCC(=O)N1CCC[C@H]1C(=O)N[C@@H](CCCNC(=N)N)C(=O)N1CCC[C@H]1C(=O)N1CCC[C@H]1C(=O)NCC(=O)N[C@@H](Cc1ccccc1)C(=O)N[C@@H](CO)C(=O)N1CCC[C@H]1C(=O)N[C@@H](Cc1ccccc1)C(=O)N[C@@H](CCCNC(=N)N)C(=O)O` [MK, maximakinin] (H-DLPKINRKGPRPPGFSPFR-OH) here?
A: 7.56 µM

Q: What about the IC50 (rat recombinant myc-B2R) of the same molecule?
A: 0.12 µM

Q: What about the EC50 [2] of the same molecule?
A: 0.145 µM

Q: What about the “consumption of MK” value [4] of the same molecule?
A: consumed during the reaction

Q: What about the “plasma concentration upper limit” value [5] of the same molecule?
A: ≤ 0.1 µM

Q: With `NC(N)=NCCC[C@H](NC(=O)[C@H](Cc1ccccc1)NC(=O)[C@@H]1CCCN1C(=O)[C@H](CO)NC(=O)[C@H](Cc1ccccc1)NC(=O)CNC(=O)[C@@H]1CCCN1C(=O)[C@@H]1CCCN1C(=O)[C@@H](N)CCCN=C(N)N)C(=O)O` [BK, bradykinin] (H-RPPGFSPFR-OH) as the molecule, how does the IC50 (rat recombinant myc-B2R) read?
A: 0.0192 µM

Q: For Lys-BK, which EC50 (rat mast cells) is on record?
A: 7.7 µM
